What all share (format): functional
Settings in all cases: read-out: ED50 (the source's name)

The test system of one assay is SK-MEL-2. Kind of assay: Cytotoxicity against human SK-MEL-2 cells.
The test system of the next assay is A549. Kind of assay: Cytotoxicity against human A549 cells.
For the next assay, the system named is SK-OV-3. Nature of the assay: Cytotoxicity against human SKOV3 cells.
A further assay concerns XF498. Kind of assay: Cytotoxicity against human XF498 cells.
For another assay, the system named is HCT-15. Nature of the assay: Cytotoxicity against human HCT15 cells.

In brackets after ≈: the same amount, converted by molar mass.

EC50 data for two compounds are collected here from ChEMBL document CHEMBL1150606, “Cytotoxic sphingosine 4-sulfates from the sponge Spirastrella abata” (2002).

As to `CCCCCCCCCCC/C=C/C[C@@H](OS(=O)(=O)O)[C@@H](O)[C@@H](N)CO`, the EC50 in the assay with SK-MEL-2 came to 4 µg/mL (≈ 10.1 µM); in the assay with A549 it was 9.9 µg/mL (≈ 25 µM); with SK-OV-3, 8.2 µg/mL (≈ 20.7 µM); in the assay on XF498, 4.6 µg/mL (≈ 11.6 µM); in the assay with HCT-15, 3.7 µg/mL (≈ 9.35 µM).
As to `CCCCCCCCCC/C=C/C[C@@H](OS(=O)(=O)O)[C@@H](O)[C@@H](N)CO`, the EC50 with SK-MEL-2, in the assay on A549, in the assay on SK-OV-3, in the assay with XF498 and with HCT-15 was 0.3 µg/mL (≈ 0.786 µM) each time.
